Reference: patent US5631246A, “Use of PAF” (The Canadian Red Cross Society, priority 1993, dated 1997)
Read-outs that look alike come from different tables or passages of the source.

How the values were obtained:
ECs = assay: Cytotoxicity to ECs by dye exclusion test; type: cell-based, human; conditions: BTP-dioxolane preincubation
Procedure: (§2) Media with or without thrombin (@5 units/mL) served as positive and negative controls respectively. ECs were incubated for 1, 10, 20 or 30 minutes and 1, 2, 4, 6 and 24 hours in the PAF and thrombin time course studies. The EC conditioned media were recovered, centrifuged to remove any cell debris, and then frozen at -80° C. for a maximum period of 4 weeks prior to analyses.

PAF receptor = PAF receptor (Homo sapiens, UniProt P25105); assay: Effect of PAF receptor antagonist on release of vWf from ECs; conditions: for % Inhibition of vWf release: 10 μM BTP-dioxolane
Sequence of PAF receptor (P25105 whole entry): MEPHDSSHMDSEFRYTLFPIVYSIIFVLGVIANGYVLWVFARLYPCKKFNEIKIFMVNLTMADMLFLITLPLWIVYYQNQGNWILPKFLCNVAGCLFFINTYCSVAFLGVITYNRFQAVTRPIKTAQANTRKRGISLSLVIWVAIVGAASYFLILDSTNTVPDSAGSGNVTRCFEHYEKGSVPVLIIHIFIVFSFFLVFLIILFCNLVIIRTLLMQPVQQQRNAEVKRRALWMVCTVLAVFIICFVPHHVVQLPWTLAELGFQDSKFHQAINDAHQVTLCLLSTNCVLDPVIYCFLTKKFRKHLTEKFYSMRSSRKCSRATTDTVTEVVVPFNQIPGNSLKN
Procedure: as §2
(§3) Endothelial cells (ECs) were harvested from human umbilical cord vein as described by Jaffe et al. ((1973) Culture of Human Endothelial Cells Derived from Umbilical Veins: Identification by Morphologic and Immunologic Criteria, J. Clin. Invest. 52:2745-2756) and modified by Hashemi et al. (1990, supra). Endothelial cells were subcultured in 0.2% (w/v) gelatin-coated, 12-well Linbro™ polystyrene, tissue culture plates (Flow Laboratories, Mississauga, Ontario), then plated at a density of 1-2×10^4 /well and grown to confluence.
The standard consisted of a pool of plasma from 20 normal individuals previously determined to contain 1 unit of vWf per mL by the procedure of Zimmerman et al. (1977, J. Clin. Invest. 59:984-989). […] For some experiments, the maximum vWf that could be released was determined. Following incubation, the EC conditioned media were recovered and fresh media containing 0.05% (v/v) Tween 20 and 10 μM each of the protease inhibitors D-phenylalanyl-phenylalanyl-arginyl-chloromethyl ketone, D-phenylalanyl-propyl-arginyl-chloromethyl ketone and 1,5-Dansyl-glutamyl-glycyl-arginyl-chloromethyl ketone were added to the EC monolayers of each corresponding well. The cells were freeze-thawed three times and, to assure complete breakdown of the cell membranes as well as the Weibel-Palade bodies, disrupted in a glass homogenizer using a motor-driven teflon pestle. After centrifugation, total vWf concentration was determined in the supernatants.
The following procedure was followed.

endothelial cells (ECs) [1] = assay: vWf release from ECs exposed to supernatants of DDAVP-treated monocytes (vWf releasing factor)
Procedure: Media with or without thrombin (@5 units/mL) served as positive and negative controls respectively. […] The EC conditioned media were recovered, centrifuged to remove any cell debris, and then frozen at -80° C. for a maximum period of 4 weeks prior to analyses. […] Where appropriate ECs were preincubated with BTP-dioxolane which was not cytotoxic to the cells as determined by the dye exclusion test.
as §3
Following centrifugation at 300×g for 15 minutes at 20° C., the top layer of plasma was recovered and respun at 2,000×g for 15 minutes to provide cell-free autologous plasma. The remaining plasma and buffy coat were resuspended, adjusted to 35 mL per 60 mL volume of whole blood with PBS (Dulbecco's phosphate buffered saline-Gibco BRL), and layered over 12 ml of Histopaque 1077 (Sigma). The MNC recovered by centrifugation at 300×g for 30 minutes were washed 3×in PBS+5% (v/v) fetal calf serum (FCS; Flow Laboratories, McLean, Va.). The cell concentration was adjusted to 5×10^6 /mL in RPMI+5% FCS and then added to the pretreated tissue culture plates described by Hashemi et al. (1990, supra).
The method of Freundlich and Avdolomic (1983, Use of Gelatin/Plasma Coated Flasks for Isolating Human Peripheral Blood Monocytes, J. Immunol. Methods, 62:31-37) as modified by Hashemi et al. (1990, supra) was used to purify monocytes from mononuclear cells. The mononuclear cell suspension (5×10^6 cells/mL) was incubated for 18-20 hours at 37° C. in a CO2 incubator. The monocytes were harvested with 10 mM EDTA (Gibco Laboratories) in RPMI+5% FCS and following centrifugation were washed 3×in media and resuspended in serum-free medium (DMEM/F12, Gibco) containing 1% Nutridoma-HU (Boehringer-Mannheim Canada, Laval, Quebec). The recovered cells met morphological criteria for monocytes and were 90% positive for monocyte CD14 surface marker determined by direct immunofluorescence using fluorescent conjugated anti-Leu-M3 (CD14) monoclonal antiserum (Becton-Dickinson, Mountain View, Calif.). Cell viability was greater than 90% as determined by trypan blue dye exclusion (Gibco). […] Cell suspensions were incubated in sterile Petri dishes, previously coated with 2% gelatin for 1 hour at 37° C., for 30-minutes or for 1, 2, 4, 6 and 24 hours. Monocyte-conditioned media were centrifuged at 2,000×g for 15 minutes and frozen at -80° C. prior to incubation with the EC monolayer cultures. For some experiments, conditioned media were lipid extracted as described prior to the PAF radioimmunoassay below. The dried extracts were reconstituted with fresh DMEM/F12+1% Nutridoma-HU media, briefly sonicated and added to EC cultures.

monocytes [2] = assay: Cytokine secretion from monocytes (ELISA); type: cell-based, human; conditions: 100 ng DDAVP/mL, 30 min
Excerpt: Cytokines, IL-1β, IL-6, IL-8, TNF-α, GM-CSF, and G-CSF were quantitated by specific ELISA using human recombinant cytokines as standards. The Quantikine™ kits for measuring IL-1β, IL-6, IL-8, TNF-α and G-CSF were purchased from R & D Systems (Minneapolis, Minn.). The GM-CSF assay kit came from Genzyme Corp. (Boston, Mass.). The minimum detectable levels of cytokines were: 4.5 pg/mL (IL-1β), 3.5 pg/mL (IL-6), 4.7 pg/mL (IL-8), 4.8 pg/mL (TNF-α), 11.2 pg/mL (G-CSF) and 10.0 pg/mL (GM-CSF).

monocytes [3] = assay: Secretion of prostaglandins and adenine nucleotides from monocytes; type: cell-based, human; conditions: 100 ng DDAVP/mL, 30 min
Procedure: (§1) Prostaglandins E2, F2a, and I2 (assayed as 6 keto-PGF1a) were assayed using the iodinated or tritiated (for PGF2a) kits purchased from Amersham Canada (Oakville, Ontario). ATP and ADP were assayed using the adenosine-5'-triphosphate bioluminescent kit from Sigma (St. Louis, Mo.). Prior to assay, ADP present in standards or in samples was converted to ATP (Holmsen et al. (1966) Anal. Biochem. 17:456-473; (1972) Anal. Biochem. 46:489-501). Luminescence was measured using a Lumi-Aggregometer (Chrono-Log Corp., Havertown, Pa.).

[4] = system: von Willebrand factor and factor VIII; conditions: cited from earlier work
monocytes [5] = assay: PAF secretion from monocytes (RIA); type: cell-based, human
Excerpt: In addition, PAF was extracted from the monocyte supernatants and assayed using the following highly specific and sensitive radioimmunoassay. As the most predominant bioactive forms of PAF secreted by monocytes are the C16 and C18 alkyl moieties (Sugiura and Waku, (1987) Platelet-Activating Factor and Related Lipid Mediators, F. Snyder Ed. Plenum Press, N.Y. 55-85; Prescott et al. (1990) Proc. Natl. Acad. Sci. U.S.A. 81:3534-3538), PAF was quantitated using the highly specific and sensitive ^125 I-RIA kit manufactured by NEN Research Products (Du Pont Canada, Mississauga, Ontario, Canada) following extraction of the monocyte supernatants with 5 mL each of methanol and chloroform and 3.5 mL of water per mL of sample. The recovered chloroform layers, dried under nitrogen, were reconstituted in the PAF assay kit buffer prior to analysis. The development, specificity, and sensitivity of this assay for the C16 and C18 forms of PAF have been previously documented (Smal et al. (1989) Molec. Immunol. 26:711-719; (1990) J. Molec. Recognition 3:169-173; (1990) J. Immunol. Methods 128:183-188; (1990) J. Reprod. Fert. 90:419-425). […] Iodinated samples were counted on a Beckman Gamma 5500 counter (Beckman Instruments, Fullerton, Calif.). The 3H-PAF (10 Ci/mmole) and ^125 I-PAF (2200 Ci/mmole) consisted of a 1:1 admixture of the C16 and Cla forms of PAF.
Alternatively, PAF that has previously associated with monocytes following initial secretion may be released again into the supernatant.

endothelial cells = conditions: direct DDAVP treatment; cited from earlier work
endothelial cells (ECs) [6] = assay: PGI2 release from ECs exposed to supernatants of DDAVP-treated monocytes; type: cell-based, human
Procedure: as §1
If the data are expressed as a percentage increase in PGI2 released from ECs exposed to supernatants from DDAVP-treated compared to untreated monocytes, in order to control for variability in the basal response between the various monocyte and EC preparations, a 60% increase in PGI2 release was observed (P<0.05).

## COc1cc([C@H]2OC[C@H](c3cc(OC)c(OC)c(OC)c3)O2)cc(OC)c1OC (racemic) [BTP-dioxolane]
ECs
  cytotoxicity to ECs: not cytotoxic
PAF receptor; supernatants from monocytes treated with 100 ng DDAVP/mL, P <0.001
  % Inhibition of vWf release: 82%
PAF receptor; supernatants from untreated monocytes (DDAVP 0 ng/mL), P <0.005
  % Inhibition of vWf release: 68%
PAF receptor; thrombin 5 U/mL, P <0.025
  % Inhibition of vWf release: 15%
PAF receptor; preincubated 10 minutes with ECs, final concentration 10 μM
  inhibition of the PAF-dependent release of vWf: effective inhibition of the PAF-dependent release of vWf
PAF receptor; read-out: % Inhibition of vWf release, 10 μM BTP-dioxolane, PAF 100 pM, P <0.001
  inhibition at 10 µM: 74.7 ± 4%
PAF receptor; read-out: % Inhibition of vWf release, 10 μM BTP-dioxolane, PAF 300 pM, P <0.005
  inhibition at 10 µM: 83.2 ± 11%
PAF receptor; read-out: % Inhibition of vWf release, 10 μM BTP-dioxolane, supernatants from monocytes treated with 100 ng DDAVP/mL, P <0.001
  inhibition at 10 µM: 81.8 ± 7%
PAF receptor; read-out: % Inhibition of vWf release, 10 μM BTP-dioxolane, supernatants from untreated monocytes (DDAVP 0 ng/mL), P <0.005
  inhibition at 10 µM: 68.4 ± 10.4%
PAF receptor; read-out: % Inhibition of vWf release, 10 μM BTP-dioxolane, thrombin 5 U/mL, P <0.025
  inhibition at 10 µM: 14.7 ± 4%
PAF receptor; read-out: inhibition of the effects of PAF on vWf release from ECs, BTP-dioxolane 10 μM, 100 pM or 300 pM PAF
  inhibition at 10 µM: 75 to 83%

## NC(=O)CC[C@@H]1NC(=O)[C@H](Cc2ccccc2)NC(=O)[C@H](Cc2ccc(O)cc2)NC(=O)CCSSC[C@@H](C(=O)N2CCC[C@H]2C(=O)N[C@H](CCCN=C(N)N)C(=O)NCC(N)=O)NC(=O)[C@H](CC(N)=O)NC1=O [DDAVP, 1-deamino-8-D-arginine vasopressin]
Endothelial cells (ECs) [1]; FIG. 1A, supernatants from monocytes with 100 ng DDAVP/mL 30 min, ECs 4 hours, n=26, cf. 104% untreated, P<0.001
  vWf release from ECs: 186%
Endothelial cells (ECs) [1]; FIG. 3, DDAVP-treated monocytes (100 ng/mL), reconstituted lipid extract, n=7, cf. 71% untreated, P<0.05
  enhancement of vWf release from ECs by lipid extracts of supernatants: 195%
Endothelial cells (ECs) [1]; Table 1, IL-1β to G-CSF set, monocytes with 100 ng DDAVP/mL 30 min, ECs 4 hours, n=6, P <0.05 vs 0 ng/mL: 131 ± 15
  vWf releasing factor (%): 234 ± 35%
Endothelial cells (ECs) [1]; Table 1, IL-8 set, 100 ng DDAVP/mL 30 min, ECs 4 hours, n=12, P <0.05 vs 0 ng/mL: 147 ± 29
  vWf releasing factor (%): 291 ± 58%
Endothelial cells (ECs) [1]; Table 2, ATP/ADP set, 100 ng DDAVP/mL 30 min, ECs 4 hours, n=6, P <0.025 vs 0 ng/mL: 99 ± 17
  vWf releasing factor (%): 211 ± 33%
Endothelial cells (ECs) [1]; Table 2, PGE2/PGF2α set, 100 ng DDAVP/mL 30 min, ECs 4 hours, n=10, P <0.01 vs 0 ng/mL: 122 ± 16
  vWf releasing factor (%): 307 ± 62%
Endothelial cells (ECs) [1]; Table 2, PGI2 set, 100 ng DDAVP/mL 30 min, ECs 4 hours, n=9, P <0.05 vs 0 ng/mL: 153 ± 35
  vWf releasing factor (%): 347 ± 66%
Endothelial cells (ECs) [1]; supernatants from DDAVP-stimulated vs unstimulated monocytes, except at 2 hours, FIG. 7B
  time course of vWf release from ECs: consistently higher levels of vWf released
Endothelial cells (ECs) [1]; supernatants from DDAVP-treated monocytes, ECs 4 hours
  DDAVP concentration of maximum vWf release from ECs: 100 ng DDAVP/mL
Endothelial cells (ECs) [1]; supernatants from DDAVP-treated monocytes, ECs 4 hours, estimated
  ED50 for vWf release from ECs: 45 ng DDAVP/mL
Endothelial cells (ECs) [1]; supernatants from monocytes treated with 100 ng DDAVP/mL 30 min, ECs 4 hours, n=5, 0 ng/mL: 92.6 ± 14.7%
  Increase in vWf release (%), BTP-dioxolane absent: 197.2 ± 22.8%
Endothelial cells (ECs) [1]; supernatants from monocytes with 10-800 ng DDAVP/mL, ECs 4 hours at 37° C.
  vWf release from ECs, dose response: significant increases in vWf release were observed at all concentrations tested
Monocytes [2]; n=6, N.S. vs 0 ng/mL: 4 ± 3
  TNF-α secreted: 0 ± 0 pg/mL
Monocytes [2]; n=6, N.S. vs 0 ng/mL: 23 ± 9
  IL-6 secreted: 26 ± 2 pg/mL
Monocytes [2]; n=6, N.S. vs 0 ng/mL: 319 ± 118
  IL-1β secreted: 271 ± 93 pg/mL
Monocytes [2]; n=12, N.S. vs 0 ng/mL: 690 ± 257
  IL-8 secreted: 639 ± 214 pg/mL
Monocytes [3]
  effect on secretion of PGE2, PGF2a, PGI2, ATP or ADP from monocytes: no significant effect
Monocytes [3]; n=5, N.S. vs 0 ng/mL: 16.8 ± 5.5
  ADP secreted: 17.6 ± 12.2 nM
Monocytes [3]; n=5, N.S. vs 0 ng/mL: 333 ± 116
  PGF2α secreted: 406 ± 124 pg/mL
Monocytes [3]; n=6, N.S. vs 0 ng/mL: 10.3 ± 6.6
  ATP secreted: 7.4 ± 4.4 nM
Monocytes [3]; n=9, N.S. vs 0 ng/mL: 106 ± 17
  PGI2 secreted: 107 ± 18 pg/mL
Monocytes [3]; n=10, N.S. vs 0 ng/mL: 3.61 ± 0.80
  PGE2 secreted: 4.37 ± 1.70 pg/mL
[4]; Mannucci et al.
  plasma concentration of von Willebrand factor and factor VIII in vivo: causes an increase in the plasma concentration
[4]; patients with mild or moderate haemophilia A or von Willebrand disease and normal individuals
  plasma concentration of von Willebrand factor and factor VIII: increase the plasma concentration
Monocytes [5]; 100 ng DDAVP/mL vs unstimulated, at any point in time, 30 min to 24 h, FIG. 7A
  time course of PAF in monocyte supernatants: higher levels of PAF present in post-DDAVP monocyte supernatants
Monocytes [5]; 100 ng DDAVP/mL, 2-4 hours, FIG. 7A
  time course of PAF secretion from monocytes: declined sharply
Monocytes [5]; 100 ng DDAVP/mL, 6 hours, FIG. 7A
  time course of PAF secretion from monocytes: increased again
Monocytes [5]; 100 ng DDAVP/mL, 24 hours, FIG. 7A
  time course of PAF secretion from monocytes: still elevated
Monocytes [5]; 30 minutes exposure, (169 nM)
  DDAVP concentration of maximum PAF secretion from monocytes: 200 ng DDAVP/mL
Monocytes [5]; 30 minutes, estimated
  ED50 for PAF secretion from monocytes: 85 ng DDAVP/mL
Monocytes [5]; FIG. 1B, 100 ng DDAVP/mL, 30 min, cf. 94 pM untreated, P<0.001
  PAF release from monocytes: 284 pM
Monocytes [5]; at 200 ng DDAVP/mL (169 nM), 30 minutes
  maximum PAF secretion from monocytes: 480 fmol/mL
Endothelial cells
  secretion of vWf by endothelial cells in vitro: no increased secretion of vWf
Endothelial cells (ECs) [6]; DDAVP-treated compared to untreated monocyte supernatants, P<0.05
  increase in PGI2 release from ECs: 60%
Endothelial cells (ECs) [6]; supernatants from DDAVP-treated monocytes, cf. 332±107 untreated, corrected for PGI2 in supernatants
  PGI2 release from ECs: 538 ± 136 pg/mL
